# System: 855422-203-R-J1-PDC spheroids with HUVEC/MSC, viability
# Assay: Anticancer human tumor 855422-203-R-J1-PDC patient-derived bladder carcinoma cell line growth inhibition [PI3K]
# Details: for IC50: curve of first compound; for viability, T/C: stronger effect = lower value
# Outline: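 Three cell types, namely tumor cells, endothelial cells and mesenchymal stem cells, formed each spheroid. Combinations with four PI3K inhibitors were screened at clinically achievable concentrations decreasing by half-log, and spheroid viability was recorded.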
# [1] = second compound 0.00316 µM, first compound 0.0316 µM
# [2] = second compound 0.00316 µM, first compound 0.1 µM
# [3] = second compound 0.00316 µM, first compound 0.316 µM
# [4] = second compound 0.00316 µM, first compound 1 µM
# [5] = second compound 0.00316 µM, first compound 3.16 µM
# [6] = second compound 0.00316 µM, first compound 10 µM
# [7] = second compound 0.01 µM, first compound 0.0316 µM
# [8] = second compound 0.01 µM, first compound 0.1 µM
# [9] = second compound 0.01 µM, first compound 0.316 µM
# [10] = second compound 0.01 µM, first compound 1 µM
# [11] = second compound 0.01 µM, first compound 3.16 µM
# [12] = second compound 0.01 µM, first compound 10 µM
# [13] = second compound 0.0316 µM, first compound 0.0316 µM
# [14] = second compound 0.0316 µM, first compound 0.1 µM
# [15] = second compound 0.0316 µM, first compound 0.316 µM
# [16] = second compound 0.0316 µM, first compound 1 µM
# [17] = second compound 0.0316 µM, first compound 3.16 µM
# [18] = second compound 0.0316 µM, first compound 10 µM
# [19] = second compound 0.1 µM, first compound 0.0316 µM
# [20] = second compound 0.1 µM, first compound 0.1 µM
# [21] = second compound 0.1 µM, first compound 0.316 µM
# [22] = second compound 0.1 µM, first compound 1 µM
# [23] = second compound 0.1 µM, first compound 3.16 µM
# [24] = second compound 0.1 µM, first compound 10 µM
# [25] = second compound 0.316 µM, first compound 0.0316 µM
# [26] = second compound 0.316 µM, first compound 0.1 µM
# [27] = second compound 0.316 µM, first compound 0.316 µM
# [28] = second compound 0.316 µM, first compound 1 µM
# [29] = second compound 0.316 µM, first compound 3.16 µM
# [30] = second compound 0.316 µM, first compound 10 µM
# [31] = second compound 1 µM, first compound 0.0316 µM
# [32] = second compound 1 µM, first compound 0.1 µM
# [33] = second compound 1 µM, first compound 0.316 µM
# [34] = second compound 1 µM, first compound 1 µM
# [35] = second compound 1 µM, first compound 3.16 µM
# [36] = second compound 1 µM, first compound 10 µM
# 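Also: agents incubated with spheroids for one week before read-out.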
# 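For viability, T/C in this document: 100% = DMSO vehicle-treated control wells.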
smiles,measurement,setting,value
CC(C)NCC(C(=O)N1CCN(c2ncnc3c2C(C)CC3O)CC1)c1ccc(Cl)cc1 (stereo not drawn) + CC(Nc1ccc2c(c1)OCCn1cc(N3C(=O)OCC3C(F)F)nc1-2)C(N)=O,IC50,second compound 0.00316 µM,0.836 µM
same,IC50,second compound 0.01 µM,1.12 µM
same,IC50,second compound 0.0316 µM,1.16 µM
same,IC50,second compound 0.1 µM,0.671 µM
same,IC50,second compound 0.316 µM,< 0.0316 µM
same,IC50,second compound 1 µM,< 0.0316 µM
same,"viability, T/C",[1],107%
same,"viability, T/C",[2],65.8%
same,"viability, T/C",[3],70.4%
same,"viability, T/C",[4],45.3%
same,"viability, T/C",[5],38.7%
same,"viability, T/C",[6],20.4%
same,"viability, T/C",[7],82.2%
same,"viability, T/C",[8],65.8%
same,"viability, T/C",[9],71.3%
same,"viability, T/C",[10],51.5%
same,"viability, T/C",[11],32.2%
same,"viability, T/C",[12],18.4%
same,"viability, T/C",[13],66.6%
same,"viability, T/C",[14],70%
same,"viability, T/C",[15],67.7%
same,"viability, T/C",[16],49.1%
same,"viability, T/C",[17],34.8%
same,"viability, T/C",[18],16.4%
same,"viability, T/C",[19],65.8%
same,"viability, T/C",[20],63.6%
same,"viability, T/C",[21],61.9%
same,"viability, T/C",[22],42.8%
same,"viability, T/C",[23],27.2%
same,"viability, T/C",[24],12.4%
same,"viability, T/C",[25],47.6%
same,"viability, T/C",[26],49.6%
same,"viability, T/C",[27],45.8%
same,"viability, T/C",[28],38.3%
same,"viability, T/C",[29],24%
same,"viability, T/C",[30],11.9%
same,"viability, T/C",[31],39.2%
same,"viability, T/C",[32],36.5%
same,"viability, T/C",[33],31.4%
same,"viability, T/C",[34],28.3%
same,"viability, T/C",[35],20.9%
same,"viability, T/C",[36],10.5%
CCN1CCN(Cc2ccc(Nc3ncc(F)c(-c4cc(F)c5nc(C)n(C(C)C)c5c4)n3)nc2)CC1 + CC(Nc1ccc2c(c1)OCCn1cc(N3C(=O)OCC3C(F)F)nc1-2)C(N)=O,IC50,second compound 0.00316 µM,> 1 µM
same,IC50,second compound 0.01 µM,0.791 µM
same,IC50,second compound 0.0316 µM,0.277 µM
same,IC50,second compound 0.1 µM,0.0707 µM
same,IC50,second compound 0.316 µM,0.00429 µM
same,IC50,second compound 1 µM,< 0.00316 µM
same,"viability, T/C","second compound 0.00316 µM, first compound 0.00316 µM",111%
same,"viability, T/C","second compound 0.00316 µM, first compound 0.01 µM",74.3%
same,"viability, T/C",[1],103%
same,"viability, T/C",[2],74.1%
same,"viability, T/C",[3],66.2%
same,"viability, T/C",[4],56.5%
same,"viability, T/C","second compound 0.01 µM, first compound 0.00316 µM",102%
same,"viability, T/C","second compound 0.01 µM, first compound 0.01 µM",80%
same,"viability, T/C",[7],89.7%
same,"viability, T/C",[8],76%
same,"viability, T/C",[9],56.7%
same,"viability, T/C",[10],48.3%
same,"viability, T/C","second compound 0.0316 µM, first compound 0.00316 µM",69.1%
same,"viability, T/C","second compound 0.0316 µM, first compound 0.01 µM",78.3%
same,"viability, T/C",[13],78.3%
same,"viability, T/C",[14],61.7%
same,"viability, T/C",[15],49.7%
same,"viability, T/C",[16],35.4%
same,"viability, T/C","second compound 0.1 µM, first compound 0.00316 µM",66%
same,"viability, T/C","second compound 0.1 µM, first compound 0.01 µM",66.2%
same,"viability, T/C",[19],59.1%
same,"viability, T/C",[20],46.3%
same,"viability, T/C",[21],28.3%
same,"viability, T/C",[22],21%
same,"viability, T/C","second compound 0.316 µM, first compound 0.00316 µM",46.5%
same,"viability, T/C","second compound 0.316 µM, first compound 0.01 µM",52%
same,"viability, T/C",[25],43.1%
same,"viability, T/C",[26],24.4%
same,"viability, T/C",[27],16.4%
same,"viability, T/C",[28],16.1%
same,"viability, T/C","second compound 1 µM, first compound 0.00316 µM",33%
same,"viability, T/C","second compound 1 µM, first compound 0.01 µM",40.3%
same,"viability, T/C",[31],21.9%
same,"viability, T/C",[32],14.2%
same,"viability, T/C",[33],12.3%
same,"viability, T/C",[34],13.1%
Cn1ncc(Cl)c1-c1cc(C(=O)NC(CN)Cc2cccc(F)c2)sc1Cl (stereo not drawn) + CC(Nc1ccc2c(c1)OCCn1cc(N3C(=O)OCC3C(F)F)nc1-2)C(N)=O,IC50,second compound 0.00316 µM,0.614 µM
same,IC50,second compound 0.01 µM,0.707 µM
same,IC50,second compound 0.0316 µM,0.561 µM
same,IC50,second compound 0.1 µM,0.257 µM
same,IC50,second compound 0.316 µM,0.0352 µM
same,IC50,second compound 1 µM,< 0.0316 µM
same,"viability, T/C",[1],88%
same,"viability, T/C",[2],65.1%
same,"viability, T/C",[3],60.5%
same,"viability, T/C",[4],43.6%
same,"viability, T/C",[5],31.9%
same,"viability, T/C",[6],6.62%
same,"viability, T/C",[7],89.3%
same,"viability, T/C",[8],72.4%
same,"viability, T/C",[9],64.7%
same,"viability, T/C",[10],44.9%
same,"viability, T/C",[11],25.7%
same,"viability, T/C",[12],8.23%
same,"viability, T/C",[13],75.7%
same,"viability, T/C",[14],62.9%
same,"viability, T/C",[15],56.5%
same,"viability, T/C",[16],47.7%
same,"viability, T/C",[17],22.9%
same,"viability, T/C",[18],5.89%
same,"viability, T/C",[19],64.5%
same,"viability, T/C",[20],61.6%
same,"viability, T/C",[21],40.3%
same,"viability, T/C",[22],42.9%
same,"viability, T/C",[23],19.8%
same,"viability, T/C",[24],3.42%
same,"viability, T/C",[25],50.2%
same,"viability, T/C",[26],50.2%
same,"viability, T/C",[27],34.2%
same,"viability, T/C",[28],39.2%
same,"viability, T/C",[29],16.1%
same,"viability, T/C",[30],1.76%
same,"viability, T/C",[31],38.1%
same,"viability, T/C",[32],29%
same,"viability, T/C",[33],32.4%
same,"viability, T/C",[34],24.4%
same,"viability, T/C",[35],12.2%
same,"viability, T/C",[36],1.17%
Cn1nccc1Nc1nccc(-c2ccn(C(CO)c3ccc(Cl)c(F)c3)c(=O)c2)n1 (stereo not drawn) + CC(Nc1ccc2c(c1)OCCn1cc(N3C(=O)OCC3C(F)F)nc1-2)C(N)=O,IC50,second compound 0.00316 µM,7.22 µM
same,IC50,second compound 0.01 µM,6.7 µM
same,IC50,second compound 0.0316 µM,5.55 µM
same,IC50,second compound 0.1 µM,3.78 µM
same,IC50,second compound 0.316 µM,0.796 µM
same,IC50,second compound 1 µM,< 0.0316 µM
same,"viability, T/C",[1],103%
same,"viability, T/C",[2],84.7%
same,"viability, T/C",[3],95.7%
same,"viability, T/C",[4],89.7%
same,"viability, T/C",[5],80.7%
same,"viability, T/C",[6],38.3%
same,"viability, T/C",[7],98.4%
same,"viability, T/C",[8],96.2%
same,"viability, T/C",[9],93.5%
same,"viability, T/C",[10],82.8%
same,"viability, T/C",[11],76%
same,"viability, T/C",[12],37%
same,"viability, T/C",[13],62.7%
same,"viability, T/C",[14],82.1%
same,"viability, T/C",[15],89.7%
same,"viability, T/C",[16],82.8%
same,"viability, T/C",[17],70.1%
same,"viability, T/C",[18],29.1%
same,"viability, T/C",[19],72.4%
same,"viability, T/C",[20],79.4%
same,"viability, T/C",[21],79.1%
same,"viability, T/C",[22],64.7%
same,"viability, T/C",[23],56.8%
same,"viability, T/C",[24],20.2%
same,"viability, T/C",[25],53.6%
same,"viability, T/C",[26],52.5%
same,"viability, T/C",[27],51.8%
same,"viability, T/C",[28],49.5%
same,"viability, T/C",[29],29.3%
same,"viability, T/C",[30],10.6%
same,"viability, T/C",[31],35.9%
same,"viability, T/C",[32],32.2%
same,"viability, T/C",[33],29.9%
same,"viability, T/C",[34],26.4%
same,"viability, T/C",[35],17.3%
same,"viability, T/C",[36],8.01%

# Source: PubChem BioAssay AID1963967 (Molecular Pharmacology Branch, DTP, NCI, 2024)
